Assay results as given in a melting point compilation (Tetko et al.; mined from patent text by program, amines drawn as free bases though some values may be those of a salt).

Structure (SMILES) | melting point
Cc1cc(OCc2ccc(-c3ccccc3-c3nnn[nH]3)cc2)c(C(=O)O)c(C)n1 | 237 °C
CC1c2ccccc2-c2sc(Br)cc2N1S(=O)(=O)c1ccc(O)cc1 (centres undefined) | 209 to 211 °C
CC1(C)CON(Cc2ccc(N3C(=O)c4ccccc4C3=O)cc2Cl)C1=O | 141 to 145 °C
CC(=O)CC(=S)Nc1ccccc1 | 125 °C
O=C(O)CCc1nc(-c2ccccc2)nc2ccccc12 | 159 °C
Clc1sc(Cl)c2c1CNC2 | > 270 °C
O=C(O)C(=O)c1ccc(OCCOc2ccccc2)cc1 | 102 to 103 °C
CCCS(=O)(=O)C(c1cnc(C(N)=O)cc1C)c1c(F)ccc(F)c1F (centres undefined) | 202 to 204 °C
CCCCCc1noc(-c2ccc(N3CCN(C(=O)c4ccccc4C(F)(F)F)CC3)nn2)n1 | 164 °C
O=C(NCc1ccc(C(=O)C(F)(F)F)cc1)c1cccnc1Oc1cccnc1 | 134 to 136 °C
O=C(CNc1ccc2[nH]c(=O)[nH]c2c1)N1CCC(Cc2ccc(F)cc2)CC1 | 85 to 87 °C
O[C@H](CCc1cccnc1)COc1ccc(C#Cc2ccccc2)cc1 | 67 to 68 °C
CN(C)CCCCC1CCCCN1C(=O)N1c2ccccc2C(=O)Nc2cccnc21 (centres undefined) | 145 to 147 °C
O=C(O)Cc1sc(Nc2ccccc2)nc1-c1ccc(Cl)cc1 | 256 to 257 °C
O=S(c1[nH]c(-c2ccc(Cl)cc2)c(S(=O)(=O)C(F)(F)F)c1Br)C(F)(F)F (centres undefined) | 120 to 170 °C
CC1Sc2c(C(=O)O)c(=O)c3cc(F)c(N4CCNCC4)c(F)c3n21 (centres undefined) | 260 °C
CC(=O)OC1CCN(C2c3cc4nonc4cc3OC(C)(C)C2O)C(=O)C1 (centres undefined) | 204 to 206 °C
CCCCCn1c2ccc(C(=O)NC34CC5CC(CC(C5)C3)C4)cc2c2ccc(OC)cc21 | 141 to 142 °C
O=C1CN2Cc3ccccc3N=C2N1 | > 285 °C
O=C1c2cc(Cl)ccc2-n2cnc(Cl)c2[C@@H]2CCCN12 | 209 to 210 °C
Cc1c(/C=C/c2ccccc2)nc2ccc(C(=O)O)cn2c1=O | 312 to 313 °C
Cn1cc(-c2ccncn2)cc(Br)c1=O | 208 to 210 °C
CC(=O)Nc1ccc(N2CCC(O)CC2)cc1 | 191 °C
O=C1C=CC2(C=C1)N=C(N1CCN(Cc3ccc(F)cc3)CC1)C=C2c1ccccc1 | 188 °C
O=C(O)CCCCCCC=Cc1cccs1 | 45 to 46 °C
C#CCOCc1nnc(Nc2ccc3c(c2)ncn3-c2ccccc2)c2ccccc12 | 89 to 91 °C

Structure (SMILES) | melting point
CC(C)(C)OC(=O)C1(N)C=CC(C(=O)O)C1 (centres undefined) | 126 to 127 °C
CCOc1ccc(C2C(C(=O)c3ccc(C(C)C)cc3)=C(O)C(=O)N2c2ccc(C)nn2)cc1 (centres undefined) | 279 °C
CCN1CCN(C)C[C@@H](NC(=O)c2cc(Br)c(NC)nc2OC)C1 | 52 to 55 °C
CCC1(CC(=O)OC)OCCc2c1[nH]c1c(CCO)c(F)ccc21 (centres undefined) | 101 to 103 °C
CN1CCN(CCCNc2ncc3cc(-c4c(Cl)cccc4Cl)c(NC(=O)Nc4ccc(Cl)cc4)nc3n2)CC1 | 176 to 181 °C
CCCCCCCCOCCCN=C=O | 74 to 76 °C
CC1C=C(Nc2ccc(OC(F)(F)F)cc2)N(C)N1 (centres undefined) | 80 to 82 °C
CC1(c2ccccc2)OC(=O)C(Cl)(Cl)C(C(Cl)(Cl)Cl)N1OC(=O)Nc1ccccc1 (centres undefined) | 154 to 157 °C
Cc1ccc(NC(=O)C(F)(F)F)cc1C(F)(F)F | 72 to 74 °C
Fc1ccc(Nc2ccnc(Cl)n2)cc1 | 172 to 174 °C
O=C1NC(=O)c2c1c(-c1ccccc1)cc1c2c2cc(O)ccc2n1CCCn1ccnc1 | 309 to 311 °C
COC(=O)c1ccc(S(C)(=O)=O)c(C2=NOC(C)C2)c1Cl (centres undefined) | 130 to 135 °C
O=C(NCCO)c1ccc(CCCc2ccccc2CCc2ccccc2)cc1 | 104 to 106 °C
COC(=O)c1ccc2c(c1)C(=O)C(=Cc1ccc(OC)c(OC)c1OC)O2 | 181 to 183 °C
Cc1c[nH]c(C)c1CCC(=O)O | 134 to 136 °C
N=C(N)Nc1nc(-c2nc(N)n[nH]2)cs1 | 173 to 175 °C
CN(C(=O)c1cnn(C)c1C(=O)Nc1ccc2nc(-c3cccnc3)nn2c1)C1CC1 | 237 °C
NS(=O)(=O)OCCOc1cccc(OCc2ccccc2)c1 | 107 to 109 °C
CC(=O)NC(C)Cc1ccc(C=CC(=O)O)cc1 (centres undefined) | 207 to 208 °C
CCCCNC(=O)N(C)c1cccc(-c2ccc(C=C(OC)C(=O)O)cc2OCCCC)c1 | 106 °C
N#CC(=NOS(=O)(=O)c1ccc(C(=O)O)cc1)c1ccccc1 | 250 to 251 °C
COc1ccc(N2CCOCC2)c2sc(-c3nc4c([nH]3)CCN(C(=O)c3ccc(F)cc3)CC4)nc12 | 205 to 207 °C
O=C1c2ccccc2C(=O)N1CSc1ccccn1 | 93 to 94 °C
O=C(c1ccccc1)c1cnn2c(-c3cccnc3)ccnc12 | 202 to 203 °C
CCCCCCCN(CCCCCCCCSc1nc(-c2ccccc2)c(-c2ccccc2)[nH]1)C(=O)Nc1ccc(F)cc1F | 89 to 91 °C
Cc1cc2nccn2nc1OCC(C)(C)CCS(N)(=O)=O | 161 to 162 °C

Structure (SMILES) | melting point
Cn1nnnc1SCCCCCCCCSc1nnnn1C | 52 to 54 °C
N#Cc1cccc(CSCCNC(=O)c2c(Cl)cccc2Cl)c1 | 123 to 125 °C
O=C(O)c1ccccc1C(=O)c1ccc(Cl)c(S(=O)(=O)Cl)c1 | 176 to 177 °C
N#Cc1cc(Oc2ccc3c(C(=O)Nc4cccc(C(F)(F)F)c4)cccc3c2)ncn1 | 167 °C
N#Cc1ccc(OCc2ccccc2)cc1OCc1ccccc1 | 100 °C
COC(=O)C1Cc2c([nH]c3ccccc23)C(c2c(Cl)cccc2Cl)N1 (centres undefined) | 102 to 105 °C
COc1ccc(C(CCN(C)C)c2ncc[nH]2)cc1 (centres undefined) | 131 to 133 °C
COc1cc(NC(=S)C2(C)CCc3c(C)c(O)c(C)c(C)c3O2)cc(OC)c1OC (centres undefined) | 147 to 148 °C
CCOC(=O)c1c(O)c2cnc(N3CCCC3)nc2n(C)c1=O | 174 to 177 °C
CSc1nn2c(N)cc(C)nc2c1S(=O)(=O)c1ccc(Br)cc1 | > 230 °C
CCOC(=O)C1CCc2ccc(NC(=O)OC(C)(C)C)c(C)c2O1 (centres undefined) | 123 to 124 °C
CC(C)(C)OC(=O)N1CCCC(c2nc3c(N[C@H]4[C@@H](C(N)=O)[C@@H]5C=C[C@H]4C5)ccnc3[nH]2)C1 (some centres undefined) | 222 to 225 °C
O=c1[nH]c(=O)c2ccc(C(c3ccccc3)n3ccnc3)cc2[nH]1 (centres undefined) | 287 °C
Cc1cc(C(=O)N(C)C)ccc1-c1ccc(C(=O)O)cc1 | 190 to 192 °C
NCc1ccccc1CC(=O)O | 151 to 155 °C
O=C(C=C1CCCN1)c1cccs1 | 149 to 150 °C
Brc1nnnn1Cc1ccccc1 | 54 °C
O=C(O)C1(c2ccccc2)CCCCC1 | 118 to 121 °C
O=C(CC1CCCCC1)Nc1ccc2oc3c(c2c1)CCCC3 | 189 to 191 °C
OCCc1nccn1Cc1coc(-c2ccc(OCc3coc(/C=C/c4ccc(Cl)cc4F)n3)cc2)n1 | 170 to 172 °C
O=C(O)c1cnc2cc([N+](=O)[O-])ccc2n1 | 208 to 210 °C
CN1CCN(c2ccccc2CO)[C@@H]2c3ccccc3C[C@H]21 (relative stereo) | 166 to 167 °C
COC(=O)c1ccccc1S(=O)(=O)NC(=O)Nc1nc(Cl)cn(C)c1=O | 213 to 214 °C
CCN(CC)CCOc1ccc(C#CC(C)(C)O)cc1 | 64 °C
OC1CSC(Oc2ccc(-c3cccnc3Cl)nc2)C(O)C1O (centres undefined) | 203 °C
Cc1nn(C)c(F)c1C(=O)F | 85 to 87 °C

Structure (SMILES) | melting point
CC(O)c1coc2cc(NS(C)(=O)=O)c(Oc3ccccc3)cc2c1=O (centres undefined) | 136 to 138 °C
CCOC(=O)C(C)OCc1cc2nc(Cl)ccc2n1S(=O)(=O)c1ccc2nc(N)sc2c1 (centres undefined) | 86 to 88 °C
CCC1(c2cccc(OC)c2)CCCC(=O)N(C)C1 (centres undefined) | 69 to 71 °C
Cn1ccc2c(C(=O)c3ccccc3O)cccc21 | 80 °C
Cc1ccc2c3c(ccc2n1)OC[C@H](CN1CCN(c2cccc(C)c2C)CC1)O3 | 112 to 113 °C
CC(C)(C)OC(=O)Nc1ccc(C#Cc2ccc(F)cc2)cc1[N+](=O)[O-] | 157 to 158 °C
c1ccc(-c2cc(-n3ccc4ccccc43)c3ccccc3n2)cc1 | 100 to 102 °C
CNC1=Nc2ccc(Cl)cc2C(c2ccccc2F)=NC1 | 204 to 206 °C
COc1ccc(C2CCN(c3c(C)c(C)c4c(c3C)[C@@H](c3ccc(C)cc3)C(C)(C)O4)CC2)cc1 | 183 to 185 °C
N#Cc1ccc(CN(N)c2ccc(Br)cc2)cc1 | 114 °C
COc1ccc(N2C(=O)Cc3ccccc32)cc1 | 115 to 117 °C
Clc1ccc(CS[C@H]2CO[C@H](c3ccccc3)OC2)cc1 | 95 to 99 °C
CC1(c2cccc3c2CCc2ccccc2C3=O)OCCO1 | 144 to 145 °C
CCOC(=O)Cc1nc2ccccc2n1-c1ccccc1 | 87 to 89 °C
COC(=O)c1nc(-c2ccc(C)c(C)c2)cc(N)c1Cl | 154 to 156 °C
CCS(=O)(=O)c1cc2c(c(C(=O)NCC3CCCN3C)c1)OCCO2 (centres undefined) | 140 to 141 °C
COC(=O)c1ccc(/C=C/c2nc(-c3ccccc3)c(C)s2)cc1 | 156 to 157 °C
O=c1[nH]c(-c2ccc(Cl)c(Cl)c2)co1 | 262 to 263 °C
CCN(CC)C(=O)n1ccc(Sc2c(C)cccc2Cl)n1 | 57 to 58 °C
CC(C)(C)OC(=O)N1CCN(C(=O)SCc2ccc(OCc3ccc(F)cc3)cc2)CC1 | 123 to 124 °C
Fc1ccc(NC(=S)c2ccccn2)cc1Cn1ccnc1 | 154 to 156 °C
CC1(C)C(=O)N(Cc2ccccc2Cl)OC1O (centres undefined) | 122 to 126 °C
CNc1nc(-c2cccc(NC(=O)CCc3ccccc3)c2)c2cc(OC)c(OC)cc2n1 | 180 to 182 °C
CCCCCCCC1CCC(C(C#N)Cc2ccc(Br)cc2)CC1 (centres undefined) | 60 to 62 °C
COCC1CCCN1Cc1ccc(-c2cc3ncnc(Nc4ccc5[nH]ccc5c4)c3s2)cc1 (centres undefined) | 161 to 177 °C
CCN1CC(SCC2CC2)(C(F)(F)F)c2cc(Cl)ccc2NC1=O (centres undefined) | 152 to 156 °C
